Where two headings read alike, the source gives them in different places.
Biological target: T1, Recombinant human Src (Homo sapiens, UniProt P12931)
T1 construct: made in house; host or cells: baculovirus-insect cell system
Assay: Src tyrosine kinase activity, poly E4Y and 32P-ATP
Assay type: biochemical
Experimental: Recombinant human Src was expressed using the baculovirus-insect cell system and purified as published (Budde et al., 1993 and 2000). Recombinant Csk and the FGF receptor (FGFr) were expressed as glutathione-S-transferase fusion proteins using the pGEX expression vector and E. coli, and purified as described (Sun & Budde, 1995).
The tyrosine kinase activity of Src, Csk and FGFr was determined using poly E4Y and ^32P-ATP. Briefly, enzymes were assayed in a reaction mixture consisting of 0.15 M EPPS-NaOH (pH 8.0) with 6 mM MgCl2, 0.2 mM γ^32P-ATP (0.2-0.4 mCi/μmol), 10% glycerol, 0.1% Triton X-100, and poly E4Y. Poly E4Y is a synthetic peptide whose phosphorylation is measured in this assay by the addition of the radioactively labeled phosphate from the ATP (Budde et al., 1995). […] When ATP was varied (0, 50, 100 and 250 μM), poly E4Y was kept constant at 150 μg/ml.

[1] = Table 2, read-out: Src IC50 (especially good inhibitors of Src)
[2] = read-out: IC50 (preferred compounds for treatment of Src family-related disease)

T1 sequence (P12931 whole entry): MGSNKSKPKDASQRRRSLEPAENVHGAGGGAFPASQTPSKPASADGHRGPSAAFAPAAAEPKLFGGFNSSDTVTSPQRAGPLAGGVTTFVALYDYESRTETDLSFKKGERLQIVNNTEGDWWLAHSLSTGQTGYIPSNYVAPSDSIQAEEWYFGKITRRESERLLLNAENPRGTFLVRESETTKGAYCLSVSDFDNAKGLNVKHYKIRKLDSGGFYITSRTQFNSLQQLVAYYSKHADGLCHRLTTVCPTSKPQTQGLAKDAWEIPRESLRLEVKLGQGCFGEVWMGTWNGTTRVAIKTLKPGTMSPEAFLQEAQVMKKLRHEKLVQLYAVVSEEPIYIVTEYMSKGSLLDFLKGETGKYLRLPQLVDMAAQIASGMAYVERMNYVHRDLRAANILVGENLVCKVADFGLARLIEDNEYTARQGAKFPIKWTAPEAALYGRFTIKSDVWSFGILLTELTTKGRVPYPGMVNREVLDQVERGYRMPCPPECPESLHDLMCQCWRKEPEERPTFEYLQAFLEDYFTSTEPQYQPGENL

| IC50 [1] [nM] | IC50 [2] [nM] | SMILES |
| --- | --- | --- |
| ≤ 2000 | < 2000 | COc1ccc(C=NNc2ncnc3c(C)c(-c4ccsc4)sc23)cc1O [Compound 382, 3-Hydroxy-4-methoxybenzaldehyde(7-methyl-6-(3-thienyl)thieno[3,2-d]pyrimidin-4-yl)hydrazone] |
| ≤ 2000 | < 2000 | Cc1c(C(O)c2ccccc2)sc2c(NN=Cc3ccc(C(=O)O)cc3)ncnc12 (centres unmarked) [Compound 458, 4-Carboxybenzaldehyde(6-(1-hydroxy-1-phenyl)methyl-7-methylthieno[3,2-d]pyrimidin-4-yl)hydrazone] |
| ≤ 2000 | < 2000 | Cc1c(-c2ccc(CO)cc2)sc2c(NN=Cc3ccc(C(=O)O)cc3)ncnc12 [Compound 437, 4-Carboxybenzaldehyde(6-(4-hydroxymethylphenyl)-7-methylthieno[3,2-d]pyrimidin-4-yl)hydrazone] |
| ≤ 2000 | < 2000 | COc1ccc(C=NNc2ncnc3c(C)c(-c4ccccc4OC)sc23)cc1O [Compound 435, 3-Hydroxy-4-methoxybenzaldehyde(6-(2-methoxyphenyl)-7-methylthieno[3,2-d]pyrimidin-4-yl)hydrazone] |
| ≤ 2000 | < 2000 | Cc1c(-c2cccc(CO)c2)sc2c(NN=Cc3ccc(C(=O)O)cc3)ncnc12 [Compound 441, 4-Carboxybenzaldehyde(6-(3-hydroxymethylphenyl)-7-methylthieno[3,2-d]pyrimidin-4-yl)hydrazone] |
| ≤ 2000 | < 2000 | COc1ccc(-c2sc3c(NN=Cc4ccc(C(=O)O)cc4)ncnc3c2C)cc1 [Compound 423, 4-Carboxybenzaldehyde(6-(4-methoxyphenyl)-7-methylthieno[3,2-d]pyrimidin-4-yl)hydrazone] |
| ≤ 2000 | < 2000 | COc1ccc(C=NNc2ncnc3c(C)c(CO)sc23)cc1O [Compound 478, 3-Hydroxy-4-methoxybenzaldehyde(6-hydroxymethyl-7-methylthieno[3,2-d]pyrimidin-4-yl)hydrazone] |
| ≤ 2000 | < 2000 | Cc1c(-c2ccccc2)sc2c(NN=Cc3cccnc3)ncnc12 [Compound 359, 3-Pyridinecarboxaldehyde(7-methyl-6-phenylthieno[3,2-d]pyrimidin-4-yl)hydrazone] |
| ≤ 2000 | < 2000 | COc1ccc(C=NNc2ncnc3c(C)c(C(O)c4cccs4)sc23)cc1O (centres unmarked) [Compound 490, 3-Hydroxy-4-methoxybenzaldehyde(6-(1-hydroxy-1-[2-thienyl])methyl-7-methylthieno[3,2-d]pyrimidin-4-yl)hydrazone] |
| ≤ 2000 | < 2000 | Cc1c(C(O)c2ccccc2)sc2c(NN=Cc3cccs3)ncnc12 (centres unmarked) [Compound 459, 2-Thiophenecarboxaldehyde(6-(1-hydroxy-1-phenyl)methyl-7-methylthieno[3,2-d]pyrimidin-4-yl)hydrazone] |
| ≤ 2000 | < 2000 | Cc1c(-c2ccsc2)sc2c(NN=Cc3ccc(C(=O)O)cc3)ncnc12 [Compound 380, 4-Carboxybenzaldehyde(7-methyl-6-(3-thienyl)thieno[3,2-d]pyrimidin-4-yl)hydrazone] |
| ≤ 2000 | < 2000 | Cc1c(-c2ccc(C(=O)O)cc2)sc2c(NN=Cc3cccs3)ncnc12 [Compound 455, 2-Thiophenecarboxaldehyde(6-(4-carboxyphenyl)-7-methylthieno[3,2-d]pyrimidin-4-yl)hydrazone] |
| ≤ 2000 | < 2000 | COc1cccc(-c2sc3c(NN=Cc4ccc(C(=O)O)cc4)ncnc3c2C)c1 [Compound 427, 4-Carboxybenzaldehyde(6-(3-methoxyphenyl)-7-methylthieno[3,2-d]pyrimidin-4-yl)hydrazone] |

More lines, now with the values behind:

| SMILES | IC50 [1] [nM] | IC50 [2] [nM] |
| --- | --- | --- |
| Cc1c(C(=O)O)sc2c(NN=Cc3ccc(C(=O)O)cc3)ncnc12 [Compound 466, 4-Carboxybenzaldehyde(6-carboxy-7-methylthieno[3,2-d]pyrimidin-4-yl)hydrazone] | ≤ 2000 | < 2000 |
| O=C(O)c1ccc(C=NNc2ncnc3cc(I)sc23)cc1 [Compound 395, 4-Carboxybenzaldehyde(6-iodothieno[3,2-d]pyrimidin-4-yl)hydrazone] | ≤ 2000 | < 2000 |
| Cc1c(C(O)C2CCCCC2)sc2c(NN=Cc3cccnc3)ncnc12 (centres unmarked) [Compound 469, 3-Pyridinecarboxaldehyde(6-(1-cyclohexyl-1-hydroxy)methyl-7-methylthieno[3,2-d]pyrimidin-4-yl)hydrazone] | ≤ 2000 | < 2000 |
| Cc1csc2c(NN=Cc3c[nH]cn3)ncnc12 [Compound 42, 1H-Imidazole-4-carboxaldehyde(7-methylthieno[3,2-d]pyrimidin-4-yl)hydrazone] | ≤ 2000 | < 2000 |
| Cc1c(C(=O)O)sc2c(NN=Cc3cccs3)ncnc12 [Compound 467, 2-Thiophenecarboxaldehyde(6-carboxy-7-methylthieno[3,2-d]pyrimidin-4-yl)hydrazone] | – | < 2000 |
| Cc1csc2c(NN=Cc3ccc(O)c([N+](=O)[O-])c3)ncnc12 [Compound 49, 4-Hydroxy-3-nitrobenzaldehyde(7-methylthieno[3,2-d]pyrimidin-4-yl)hydrazone] | ≤ 2000 | < 2000 |
| Cc1c(C(O)c2cccs2)sc2c(NN=Cc3ccc(C(=O)O)cc3)ncnc12 (centres unmarked) [Compound 488, 4-Carboxybenzaldehyde(6-(1-hydroxy-1-[2-thienyl])methyl-7-methylthieno[3,2-d]pyrimidin-4-yl)hydrazone] | ≤ 2000 | < 2000 |
| Cc1c(C(O)c2cccnc2)sc2c(NN=Cc3cccs3)ncnc12 (centres unmarked) [Compound 485, 2-Thiophenecarboxaldehyde(6-(1-hydroxy-1-[3-pyridyl])methyl-7-methylthieno[3,2-d]pyrimidin-4-yl)hydrazone] | ≤ 2000 | < 2000 |
| Cc1[nH]cnc1C=NNc1ncnc2c(C)csc12 [Compound 100, 5-Methyl-1H-imidazole-4-carboxaldehyde(7-methylthieno[3,2-d]pyrimidin-4-yl)hydrazone] | ≤ 2000 | < 2000 |
| Cc1c(C(O)c2cccs2)sc2c(NN=Cc3cccnc3)ncnc12 (centres unmarked) [Compound 487, 3-Pyridinecarboxaldehyde(6-(1-hydroxy-1-[2-thienyl])methyl-7-methylthieno[3,2-d]pyrimidin-4-yl)hydrazone] | – | < 2000 |
| CS(=O)(=O)c1ccc(-c2cc3ncnc(NN=Cc4ccc(C(=O)O)cc4)c3s2)cc1 [Compound 291, 4-Carboxybenzaldehyde(6-(4-methanesulphonylphenyl)thieno-[3,2-d]pyrimidin-4-yl)hydrazone] | ≤ 2000 | < 2000 |
| COc1ccc(-c2cc3ncnc(NN=Cc4ccc(C(=O)O)cc4)c3s2)cc1 [Compound 406, 4-Carboxybenzaldehyde(6-(4-methoxyphenyl)thieno[3,2-d]pyrimidin-4-yl)hydrazone] | ≤ 2000 | < 2000 |
| Cc1csc2c(NN=CC3CC3)ncnc12 [Compound 178, Cyclopropanecarboxaldehyde(7-methylthieno[3,2-d]pyrimidin-4-yl)hydrazone] | ≤ 2000 | < 2000 |
| Cc1c(I)sc2c(NN=Cc3ccc(C(=O)O)cc3)ncnc12 [Compound 373, 4-Carboxybenzaldehyde(6-iodo-7-methylthieno[3,2-d]pyrimidin-4-yl)hydrazone] | ≤ 2000 | < 2000 |
| Cc1c(C(=O)O)sc2c(NN=Cc3cccnc3)ncnc12 [Compound 465, 3-Pyridinecarboxaldehyde(6-carboxy-7-methylthieno[3,2-d]pyrimidin-4-yl)hydrazone] | ≤ 2000 | < 2000 |
| Cc1c(C(O)C2CCCCC2)sc2c(NN=Cc3cccs3)ncnc12 (centres unmarked) [Compound 471, 2-Thiophenecarboxaldehyde(6-(1-cyclohexyl-1-hydroxy)methyl-7-methylthieno[3,2-d]pyrimidin-4-yl)hydrazone] | ≤ 2000 | < 2000 |
| Cc1c(C(O)c2cccnc2)sc2c(NN=Cc3cccnc3)ncnc12 (centres unmarked) [Compound 483, 3-Pyridinecarboxaldehyde(6-(1-hydroxy-1-[3-pyridyl])methyl-7-methylthieno[3,2-d]pyrimidin-4-yl)hydrazone] | ≤ 2000 | < 2000 |
| O=C(O)c1ccc(C=NNc2ncnc3c2sc2ncccc23)cc1 [Compound 245, 4-Carboxybenzaldehyde(pyrido[3′,2′:4,5]thieno[3,2-d]pyrimidin-4-yl)hydrazone] | ≤ 2000 | < 2000 |
| Cc1c(CO)sc2c(NN=Cc3ccc(C(=O)O)cc3)ncnc12 [Compound 477, 4-Carboxybenzaldehyde(6-hydroxymethyl-7-methylthieno[3,2-d]pyrimidin-4-yl)hydrazone] | ≤ 2000 | < 2000 |
| O=C(O)c1ccc(C=NNc2ncnc3cc(-c4cccc(Cl)c4)sc23)cc1 [Compound 305, 4-Carboxybenzaldehyde(6-(3-chlorophenyl)thieno[3,2-d]pyrimidin-4-yl)hydrazone] | ≤ 2000 | < 2000 |
| Cc1c(C(O)c2cccnc2)sc2c(NN=Cc3ccc(C(=O)O)cc3)ncnc12 (centres unmarked) [Compound 484, 4-Carboxybenzaldehyde(6-(1-hydroxy-1-[3-pyridyl])methyl-7-methylthieno[3,2-d]pyrimidin-4-yl)hydrazone] | ≤ 2000 | < 2000 |
| C(=NNc1ncnc2ccsc12)c1cccnc1 [Compound 98, 3-Pyridinecarboxaldehyde(thieno[3,2-d]pyrimidin-4-yl)hydrazone] | ≤ 2000 | < 2000 |

From patent US7285556B2, “Thienopyrimidine-based inhibitors of the src family” (Board of Regents, The University of Texas Systems, priority 2000, dated 2007)
